# Assay results published in patent publication US20230051589A1, “COMPOUNDS AND COMPOSITIONS FOR TREATING CONDITIONS ASSOCIATED WITH NLRP ACTIVITY” (Novartis AG, priority 2018, published 2023).
# pIC50: −log10 of the molar value.
# Tested on: IL-1β production in PMA-differentiated THP-1 cells
# Test: IL-1β production in PMA-differentiated THP-1 cells stimulated with gramicidin (hTHP-1 assay, 2% fetal bovine serum; Procedures 1-3)
# Assay type: cell-based, human
# Details: Homo sapiens, THP-1, Table B3; hTHP-1 assay containing 2% fetal bovine serum, gramicidin stimulation, IL-1β readout; read-out: hTHP-1 IC50
# In short: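 PMA-primed THP-1 cells (20 ng/ml PMA, 16-18 h) in RPMI with 2% FBS were pre-incubated with compounds for 1 h, from 100 μM downward in 3-fold steps (0.37% DMSO final), then stimulated with 5 μM gramicidin for 2 h. IL-1β in the supernatant was quantified by HTRF.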
row,pIC50,Compound
1,4.52 to 5.30,"NS(=O)(=NC(=O)Nc1c2c(cc3c1CCC3)CCC2)c1ccc(-c2ccccc2)s1 (stereo not drawn) [Example 759, N′-((1,2,3,5,6,7-hexahydro-s-indacen-4-yl)carbamoyl)-5-phenylthiophene-2-sulfonimidamide]"

# Same assay, conditions: Homo sapiens, THP-1, hTHP-1 assay containing 2% fetal bovine serum, Table B2, class symbols; read-out: IC50
row,pIC50,Compound
1,5.30 to 6.00,CCn1ccc([S@@](N)(=O)=NC(=O)Nc2c3c(cc4c2CCC4)CCC3)n1 [Compound 904b]
2,5.30 to 6.00,"NS(=O)(=NC(=O)Nc1c2c(cc3c1CCC3)CCC2)c1ccc(C2CCN2)cc1 (stereo not drawn) [Example 444, 4-(Azetidin-2-yl)-N′-((1,2,3,5,6,7-hexahydro-s-indacen-4-yl)carbamoyl)benzenesulfonimidamide]"
3,6.00 to 6.70,C[C@@](O)(CO)c1ncc([S@](N)(=O)=NC(=O)Nc2c3c(cc4c2CC4)CCC3)s1 [Compound 919a]
4,5.30 to 6.00,"C=CCNCc1ccc([S@](N)(=O)=NC(=O)Nc2c3c(cc4c2CCC4)CCC3)cc1 [Example 699, (R)-4-((allylamino)methyl)-N′-((1,2,3,5,6,7-hexahydro-s-indacen-4-yl)carbamoyl)-benzenesulfonimidamide]"
5,5.30 to 6.00,"CNCC(C)(C)c1ccc(S(N)(=O)=NC(=O)Nc2c3c(cc4c2CCC4)CCC3)cc1 (stereo not drawn) [compound 496, N′-((1,2,3,5,6,7-hexahydro-s-indacen-4-yl)carbamoyl)-4-(2-methyl-1-(methylamino)propan-2-yl)benzenesulfonimidamide]"
6,5.30 to 6.00,"CNC(C)(C)c1ccc(S(N)(=O)=NC(=O)Nc2c3c(cc4c2CCC4)CCC3)cc1 (stereo not drawn) [Example 486, N′-((1,2,3,5,6,7-hexahydro-s-indacen-4-yl)carbamoyl)-4-(2-(methylamino)propan-2-yl) benzenesulfonimidamide]"
7,5.30 to 6.00,"N[S@@](=O)(=NC(=O)Nc1c2c(cc3c1CCC3)CCC2)c1ccc(CNC2CCOCC2)cc1 [Example 703, (R)-N′-((1,2,3,5,6,7-hexahydro-s-indacen-4-yl)carbamoyl)-4-(((tetrahydro-2H-pyran-4-yl)-amino)methyl)benzenesulfonimidamide]"

# Same assay, conditions: Homo sapiens, THP-1, hTHP-1 assay containing 2% fetal bovine serum, Table B2, given as bound; read-out: IC50
row,pIC50,Compound
1,< 4.52,"CN(C)C(c1ccc(S(N)(=O)=NC(=O)Nc2c3c(cc4c2CCC4)CCC3)cc1)C(F)(F)F (single isomer, unassigned) [Example 663]"

# Same assay, conditions: Table B1; hTHP-1 assay containing 2% fetal bovine serum, gramicidin stimulation, IL-1β readout; read-out: hTHP-1 IC50 (average)
row,pIC50,Compound
1,7.40 to 8.10,"CC(C)(O)c1ncc([S@](N)(=O)=NC(=O)Nc2c3c(cc4c2CC4)CCC3)s1 [Example 224, (R)-2-(2-hydroxypropan-2-yl)-N′-((2,4,5,6-tetrahydro-1H-cyclobuta[f]inden-3-yl)carbamoyl) thiazole-5-sulfonimidamide]"
2,6.00 to 6.70,"CC(C)(O)c1ncc(S(N)(=O)=NC(=O)Nc2c3c(cc4c2C(O)CC4)CCC3)s1 (single isomer, unassigned) [Example 391, (R, R) or (R, S) or (S, S) or (S, R)-N′-((3-hydroxy-1,2,3,5,6,7-hexahydro-s-indacen-4-yl)carbamoyl)-2-(2-hydroxypropan-2-yl)thiazole-5-sulfonimid-amide]"
3,6.70 to 7.40,"CC(C)(O)c1cnc(S(N)(=O)=NC(=O)Nc2c3c(cc4c2OCC4)CCC3)s1 (single isomer, unassigned) [Example 350, (R) or (S)-5-(2-hydroxy-propan-2-yl)-N′-((3,5,6,7-tetrahydro-2H-indeno-[5,6-b]furan-8-yl)carbam-oyl)thiazole-2-sulfonimid-amide]"
4,7.40 to 8.10,"[2H]C1([2H])CCc2c1cc1c(c2NC(=O)N=S(N)(=O)c2cnc(C(C)(C)O)s2)CCC1([2H])[2H] (single isomer, unassigned) [Example 423, (R) or (S)-N′-((1,2,3,5,6,7-hexahydro-s-indacen-4-yl-1,1,7,7-d4)carbamoyl)-2-(2-hydroxypropan-2-yl)-thiazole-5-sulfonimidamide]"
5,7.40 to 8.10,"CC(C)(O)c1cc(F)c(S(N)(=O)=NC(=O)Nc2c3c(cc4c2CCC4)CCC3)s1 (single isomer, unassigned) [Example 385, (R) or (S)-3-fluoro-N′-((1,2,3,5,6,7-hexahydro-s-indacen-4-yl)carbamoyl)-5-(2-hydroxypropan-2-yl)thiophene-2-sulfonimid-amide]"
6,6.70 to 7.40,"CC(C)(O)c1ncc(S(N)(=O)=NC(=O)Nc2c3c(cc4c2OCC4)CCC3)s1 (single isomer, unassigned) [Example 343, (R) or (S)-2-(2-hydroxy-propan-2-yl)-N′-((3,5,6,7-tetrahydro-2H-indeno[5,6-b]furan-8-yl)carbamoyl)-thiazole-5-sulfonimidamide]"

# Same assay, conditions: Table B3; hTHP-1 assay containing 2% fetal bovine serum, gramicidin stimulation, IL-1β readout; read-out: hTHP-1 IC50
row,pIC50,Compound
1,6.00 to 6.70,"NS(=O)(=NC(=O)Nc1c2c(cc3c1CC3)CCC2)c1sc2c(c1F)COCC2 (single isomer, unassigned) [Example 841, (R) or (S)-3-fluoro-N′-((2,4,5,6-tetrahydro-1H-cyclobuta[f]inden-3-yl)carbamoyl)-6,7-dihydro-4H-thieno[3,2-c]pyran-2-sulfonimidamide]"
2,< 4.52,"CN(Cc1ccc(S(N)(=O)=NC(=O)Nc2c3c(cc4c2CC4)CCC3)c(F)c1)C1CCC1 (single isomer, unassigned) [Example 798, (S) or (R)-4-((cyclobutyl(methyl)amino)methyl)-2-fluoro-N′-((2,4,5,6-tetrahydro-1H-cyclobuta[f]inden-3-yl)carbamoyl)benzenesulfonimidamide]"
3,6.70 to 7.40,"CCn1ccc(S(N)(=O)=NC(=O)Nc2c3c(cc4c2CC4)CCC3)n1 (single isomer, unassigned) [Example 825]"
4,5.30 to 6.00,"NS(=O)(=NC(=O)Nc1c2c(cc3c1CC3)CCC2)c1cc2c(s1)CCN(CC(F)F)C2 (single isomer, unassigned) [Example 872, (R) or (S) -5-(2,2-difluoroethyl)-N′-((2,4,5,6-tetrahydro-1H-cyclobuta[f]inden-3-yl)carbamoyl)-4,5,6,7-tetrahydrothieno[3,2-c]pyridine-2-sulfonimidamide]"
5,7.40 to 8.10,"CN[C@H](c1ccc(S(N)(=O)=NC(=O)Nc2c3c(cc4c2CC4)CCC3)s1)C1CC1 (single isomer, unassigned) [Example 868, (R, R) or (S, R)-5-(cyclopropyl(methylamino)methyl)-N′-((2,4,5,6-tetrahydro-1H-cyclobuta[f]inden-3-yl)carbamoyl)thiophene-2-sulfonimidamide]"
6,6.70 to 7.40,"NS(=O)(=NC(=O)Nc1c2c(cc3c1CCC3)CCC2)c1cc2c(s1)CCNC2 (single isomer, unassigned) [Example 787, (R) or (S)-N′-((1,2,3,5,6,7-hexahydro-s-indacen-4-yl)carbamoyl)-4,5,6,7-tetrahydrothieno[3,2-c]pyridine-2-sulfonimidamide]"
7,6.70 to 7.40,"CNCc1csc(S(N)(=O)=NC(=O)Nc2c3c(cc4c2CC4)CCC3)c1 (single isomer, unassigned) [Example 837, (R) or (S)-4-((methylamino)methyl)-N′-((2,4,5,6-tetrahydro-1H-cyclobuta[f]inden-3-yl)carbamoyl)thiophene-2-sulfonimidamide]"

# Same assay, conditions: hTHP-1 assay containing 2% fetal bovine serum, Table B2, class symbols; read-out: IC50
row,pIC50,Compound
1,6.00 to 6.70,"COc1ccc(Cn2nc(S(N)(=O)=NC(=O)Nc3c4c(cc5c3CCC5)CCC4)cc2C(C)(C)O)cc1 (stereo not drawn) [Example 457, N′-((1,2,3,5,6,7-hexahydro-s-indacen-4-yl)carbamoyl)-5-(2-hydroxypropan-2-yl)-1-(4-methoxybenzyl)-1H-pyrazole-3-sulfonimidamide]"
2,7.40 to 8.10,"CC(O)(CO)c1ncc(S(N)(=O)=NC(=O)Nc2c3c(cc4c2CCC4)CCC3)s1 (stereo not drawn) [Example 436, 2-(1,2-Dihydroxypropan-2-yl)-N′-((1,2,3,5,6,7-hexahydro-s-indacen-4-yl)carbamoyl)thiazole-5-sulfonimidamide]"
3,5.30 to 6.00,"COCc1nc(C(C)(C)O)sc1S(N)(=O)=NC(=O)Nc1c2c(c(C#N)c3c1CCC3)CCC2 (single isomer, unassigned) [Example 532, (S) or (R)-N′-((8-cyano-1,2,3,5,6,7-hexahydro-s-indacen-4-yl)carbamoyl)-2-(2-hydroxypropan-2-yl)-4-(methoxymethyl) thiazole-5-suifoiiimidamide]"
4,6.70 to 7.40,"CC(C)n1nc(S(N)(=O)=NC(=O)Nc2c3c(c(C#N)c4c2CCC4)CCC3)cc1CO (single isomer, unassigned) [Example 548, (R) or (S)-N′-((8-cyano-1,2,3,5,6,7-hexahydro-s-indacen-4-yl)carbamoyl)-5-(hydroxymethyl)-1-isopropyl-1H-pyrazole-3-sulfonimidamide]"
5,4.52 to 5.30,"NS(=O)(=NC(=O)Nc1c2c(cc3c1CCC3)CCC2)c1ccc(C2CCCN2)cc1 (mixture of isomers) [Example 649, (S,R) or (R,R) and (S,S) or (R,S)-N′-((1,2,3,5,6,7-hexahydro-s-indacen-4-yl)carbamoyl)-4-(pyrrolidin-2-yl) benzenesulfonimidamide (mixture of two isomers)]"
6,6.00 to 6.70,"CC(O)(CO)c1ncc(S(N)(=O)=NC(=O)Nc2c3c(cc4c2CCC4)CCC3)s1 (single isomer, unassigned) [Example 627, (R,S) or (S,S)-1,2-dihydroxypropan-2-yl)-N′-((l,2,3,5,6,7-hexahydro-s-indacen-4-yl) carbamoyl) thiazole-5-sulfonimidamide]"
7,5.30 to 6.00,"Cc1c(C2CC2)cc2c(c1NC(=O)N=[S@](N)(=O)c1cc(C(C)(C)O)cs1)CCC2 (single isomer, unassigned) [Example 521, (S) or (R)-N′-((6-cyclopropyl-5-methyl-2,3-dihydro-1H-inden-4-yl)carbamoyl)-4-(2-hydroxyprepan-2-yl)thiophene-2-sulfonimidamide]"
8,5.30 to 6.00,"CC(OC(F)F)c1ccc(S(N)(=O)=NC(=O)Nc2c3c(cc4c2CCC4)CCC3)cc1 (single isomer, unassigned) [Example 641]"
